In PubChem BioAssay (NCI):
“And” between values parts separate entries of the source, which are not always exact repeats. Equal values may be shown once.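 Following 48 hours of exposure in 96-well plates, responses at five concentrations were used to interpolate endpoints linearly. GI50 marks 50% less growth. TGI: total growth inhibition.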

Tests used:
Assay in all cases: NCI anticancer screen, dose series, 48 h
[1] = test system: OVCAR-8 ovarian
[2] = test system: UACC-257 melanoma
[3] = test system: U251 CNS
[4] = test system: ACHN renal
[5] = test system: DU-145 prostate
[6] = test system: HCC-2998 colon
[7] = test system: NCI-H226 lung
[8] = test system: MDA-MB-435
[9] = test system: MOLT-4 leukemia
[10] = test system: NCI/ADR-RES ovarian

Structure (SMILES)	GI50 [1]	TGI [1]	GI50 [2]	TGI [2]	GI50 [3]	TGI [3]	GI50 [4]	TGI [4]	GI50 [5]	TGI [5]	GI50 [6]	TGI [6]	GI50 [7]	TGI [7]	GI50 [8]	TGI [8]	GI50 [9]	TGI [9]	GI50 [10]	TGI [10]
CC1SC(c2cccs2)N(NC(=O)C(O)c2ccccc2)C1=O (centres undefined)	> 100 µM	> 100 µM	> 100 µM	> 100 µM	> 100 µM	> 100 µM	> 100 µM	> 100 µM	> 100 µM	> 100 µM	> 100 µM	> 100 µM	> 100 µM	> 100 µM	> 100 µM	> 100 µM	> 100 µM	> 100 µM	–	–
O=C(OCCOCCOC(=O)c1c[nH]cc1-c1ccccc1)c1c[nH]cc1-c1ccccc1	–	84.7 µM	–	33.1 µM	–	36.7 µM	–	–	–	–	–	42.4 µM	–	48.9 µM	–	–	–	49.1 µM	–	–
Cc1ccc(S(=O)(=O)N2CCCCC2CCO)cc1 (centres undefined)	–	> 100 µM	–	> 100 µM	–	> 100 µM	–	> 100 µM	–	–	–	> 100 µM	–	> 100 µM	–	–	–	> 100 µM	–	–
Cn1c(=O)c(F)c(Nc2ccc(I)cc2F)c2c(=O)n(C[C@@H](O)CO)cnc21	7.91 µM	> 100 µM	< 0.01 µM and 0.00301 µM	< 0.01 µM and 0.0262 µM	0.741 µM and 0.246 µM	> 49.9 µM	2.17 µM and 0.48 µM	40.8 µM and > 6.49 µM	–	> 100 µM	< 0.01 µM and 0.0028 µM	0.0969 µM and 0.57 µM	–	–	< 0.01 µM and 0.00642 µM	41.1 µM	18.4 µM	45.1 µM and > 4.74 µM	12.7 µM and > 2.46 µM	> 100 µM
COC(=O)C1Cc2c([nH]c3ccccc23)C=N1 (centres undefined)	–	> 100 µM	–	> 100 µM	–	> 100 µM	–	> 100 µM	–	–	–	> 100 µM	–	> 100 µM	–	–	–	> 100 µM	–	–
Cc1cc2c(=O)cc(-c3ccc(Cl)cc3)oc2c(C(=O)O)c1C	–	> 100 µM	–	> 100 µM	–	> 100 µM	–	> 100 µM	–	–	–	–	–	> 100 µM	–	–	–	> 100 µM	–	–
CCOC(=O)[C@H]1Nc2ccc(O)cc2C2c3ccccc3CC21 (some centres undefined)	–	> 100 µM	–	> 100 µM	–	> 100 µM	–	> 100 µM	–	–	–	> 100 µM	–	> 100 µM	–	–	–	> 100 µM	–	–
N#C/C(=C/N1CCN(C(=O)c2ccco2)C1=S)C(N)=O	43.7 µM	> 100 µM	23.3 µM	50.8 µM	11.5 µM	46.8 µM	11.8 µM	38.8 µM	29.8 µM	> 100 µM	–	–	–	–	14.6 µM	44.1 µM	39.8 µM	> 100 µM	25.4 µM	59.6 µM
CCCCOC(=O)N[C@H]1CCc2cc(OC)c(OC)c(OC)c2-c2ccc(SC)c(=O)cc21	–	12.7 µM	–	31.4 µM	–	3.87 µM	–	13.1 µM	–	< 0.01 µM	–	2.29 µM	–	0.357 µM	–	< 0.01 µM	–	57.8 µM	–	–
Cc1ccc(/C=C2\CCOC2=O)cc1	> 100 µM	> 100 µM	> 100 µM	> 100 µM	> 100 µM	> 100 µM	> 100 µM	> 100 µM	> 100 µM	> 100 µM	–	–	> 100 µM	> 100 µM	–	–	> 100 µM	> 100 µM	> 100 µM	> 100 µM
O=c1c2ccccc2nc(-c2ccc(Cl)cc2)n1O	–	48.4 µM	–	88.2 µM	–	> 100 µM	–	65 µM	–	> 100 µM	–	–	–	> 100 µM	–	> 100 µM	–	> 100 µM	–	58.2 µM
Cc1ccccc1NC(=O)c1[nH]c(=S)nc(N)c1-c1ccccc1C	–	> 100 µM	–	> 100 µM	–	> 100 µM	–	> 100 µM	–	–	–	> 100 µM	–	> 100 µM	–	–	–	> 100 µM	–	–
COc1ccc(Cc2ccccc2C(=O)O)c2ccccc12	–	> 100 µM	–	48.3 µM	–	89.3 µM	–	> 100 µM	–	> 100 µM	–	–	–	> 100 µM	–	54.8 µM	–	–	–	> 100 µM
Cc1c(Cl)cccc1NC(=O)C(=O)C1C(=O)NC(=O)NC1=O	–	> 100 µM	–	> 100 µM	–	> 100 µM	–	> 100 µM	–	–	–	> 100 µM	–	> 100 µM	–	–	–	> 100 µM	–	–
CC(C)(C)NNc1c([N+](=O)[O-])cnn(-c2ccccc2)c1=O	–	4.74 µM	–	11.4 µM	–	8.05 µM	–	16.4 µM	–	26 µM	–	11.8 µM	–	14.7 µM	–	3.27 µM	–	4.91 µM	–	–
NCCOc1ccccn1	–	> 100 µM	–	> 100 µM	–	> 100 µM	–	> 100 µM	–	> 100 µM	–	–	–	> 100 µM	–	> 100 µM	–	> 100 µM	–	> 100 µM
Cc1c2c(nn1-c1ccc(S/N=C3\SCC(=O)CN3c3ccccc3)cc1)-c1ccccc1CC2	> 50 µM	> 50 µM	45.3 µM	> 50 µM	21.1 µM	> 50 µM	24.1 µM	> 50 µM	43.9 µM	> 50 µM	–	–	9.75 µM	27 µM	16.8 µM	> 50 µM	19.6 µM	> 50 µM	14.5 µM	> 50 µM
CC(CN(CP(=O)([O-])[O-])CP(=O)([O-])[O-])N(CP(=O)([O-])[O-])CP(=O)([O-])[O-].N[C@@H]1CCCC[C@@H]1N.[Pt+2] (centres undefined)	> 100 µM	> 100 µM	> 100 µM	> 100 µM	> 100 µM	> 100 µM	> 100 µM	> 100 µM	–	–	> 100 µM	> 100 µM	> 100 µM	> 100 µM	–	–	> 100 µM	> 100 µM	–	–
COc1ccccc1NC(=O)C1=C(C)NC(C)=C(C(=O)Nc2ccccc2OC)C1c1ccc(C(C)C)cc1	–	> 100 µM	–	> 100 µM	–	> 100 µM	–	> 100 µM	–	–	–	> 100 µM	–	> 100 µM	–	–	–	> 100 µM	–	–
CC(C)(C)c1cc(C(O)(C(F)(F)F)C(F)(F)F)c2c(c1)C(C(F)(F)F)(C(F)(F)F)OC(c1ccccc1)(C(C)(C)C)N2 (centres undefined)	–	26.2 µM	–	19.7 µM	–	10.4 µM	–	14 µM	–	–	–	21.1 µM	–	9.32 µM	–	–	–	4.91 µM	–	–
